Data from the supplement of paper PMC10331698.
± gives the standard deviation of the averaged measurements.

Columns and labels:
Experiment in all cases: level (log10 ratio to DMSO vehicle control); higher = higher biomarker level / cell amount than vehicle control
[1] = compound: NS(=O)(=O)C(F)(F)C(F)(F)C(F)(F)C(F)(F)C(F)(F)C(F)(F)F [Perfluorohexanesulfonamide]; conditions: in DMSO
Protocol: (§1)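 BioMAP Diversity Plus panel of 12 human primary cell co-culture systems (3C, 4H, LPS, SAg, BT, BF4T, BE3C, CASM3C, HDF3CGF, KF3CT, MyoF, Mphg). Compounds were added 1 h before stimulation and left for 24 h (MyoF 48 h; BT 72 h for soluble read-outs or 6 d for IgG). Biomarkers were read by ELISA, cytotoxicity by SRB, PBMC viability and proliferation by Alamar Blue. Each well value was divided by the mean of 8 DMSO control wells on the same plate and log10 transformed; duplicate blinded samples were tested at 4 concentrations.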

[2] = compound: O=S(=O)(Cl)C(F)(F)C(F)(F)C(F)(F)C(F)(F)C(F)(F)C(F)(F)C(F)(F)C(F)(F)F [Perfluoro-1-octanesulfonyl chloride]; conditions: in DMSO
Protocol: as §1

[3] = compound: FC(F)(F)C(F)(F)C(F)(F)C(F)(F)C(F)(F)C(F)(F)CC1CO1 [3-(Perfluorohexyl)-1,2-epoxypropane]; conditions: in DMSO
Protocol: as §1

[4] = compound: FC(F)(F)C(F)(F)C(F)(F)C(F)(F)C(F)(F)C(F)(F)C(F)(F)I [1-Iodopentadecafluoroheptane]; conditions: in DMSO
Protocol: as §1

[5] = compound: FC(F)(F)C(F)(F)C(F)(F)CC1CO1 [1H,1H-Heptafluorobutyl epoxide]; conditions: in DMSO
Protocol: as §1

Octafluoroadipamide = compound: NC(=O)C(F)(F)C(F)(F)C(F)(F)C(F)(F)C(N)=O [Octafluoroadipamide]; conditions: in DMSO
Protocol: as §1

[6] = compound: O=S(=O)(F)C(F)(F)C(F)(F)C(F)(F)C(F)(F)C(F)(F)C(F)(F)C(F)(F)C(F)(F)F [Perfluorooctanesulfonyl fluoride]; conditions: in DMSO
Protocol: as §1

[7] = compound: COC(=O)C(F)(F)C(F)(F)OC(F)(C(F)(F)F)C(F)(F)OC(F)=C(F)F [Methyl perfluoro(3-(1-ethenyloxypropan-2-yloxy)propanoate)]; conditions: in DMSO
Protocol: as §1

[8] = compound: NC(=O)C(F)(F)C(F)(F)C(F)(F)C(F)F; conditions: in DMSO
Protocol: as §1

[9] = compound: O=S(=O)(O)C(F)(F)C(F)(F)C(F)(F)C(F)(F)C(F)(F)C(F)(F)C(F)(F)C(F)(F)C(F)(F)C(F)(F)F [Sodium perfluorodecanesulfonate]; conditions: in DMSO
Protocol: as §1

[10] = compound: O=S(=O)(O)CCC(F)(F)C(F)(F)C(F)(F)C(F)(F)C(F)(F)C(F)(F)F [6:2 Fluorotelomer sulfonic acid]; conditions: in DMSO
Protocol: as §1

Heptafluorobutyl iodide = compound: FC(F)(F)C(F)(F)C(F)(F)CI [Heptafluorobutyl iodide]; conditions: in DMSO
Protocol: as §1

Nonafluoropentanamide = compound: NC(=O)C(F)(F)C(F)(F)C(F)(F)C(F)(F)F [Nonafluoropentanamide]; conditions: in DMSO
Protocol: as §1

[11] = compound: C=C(C)C(=O)OCCC(F)(F)C(F)(F)C(F)(F)C(F)(F)C(F)(F)C(F)(F)F [6:2 Fluorotelomer methacrylate]; conditions: in DMSO
Protocol: as §1

[12] = compound: C=CC(=O)OCC(F)(F)C(F)(F)C(F)(F)COC(=O)C=C [1H,1H,5H,5H-Perfluoro-1,5-pentanediol diacrylate]; conditions: 6700 nM; in DMSO
Protocol: as §1

[13] = compound: O=C(O)C(F)(F)C(F)(F)C(F)(F)C(F)(F)C(F)(F)C(F)(F)C(F)(F)C(F)(F)C(F)(F)C(F)F [11-H-Perfluoroundecanoic acid]; conditions: in DMSO
Protocol: as §1

[14] = compound: FC(F)(F)C(F)(F)CNCC(F)(F)C(F)(F)F [Bis(1H,1H-perfluoropropyl)amine]; conditions: in DMSO
Protocol: as §1

Hexafluoroamylene glycol = compound: OCC(F)(F)C(F)(F)C(F)(F)CO [Hexafluoroamylene glycol]; conditions: in DMSO
Protocol: as §1

[15] = compound: O=C(O)C=CC(F)(C(F)(F)F)C(F)(F)F [3-(Perfluoroisopropyl)-2-propenoic acid]; conditions: in DMSO
Protocol: as §1

SAg:CD69
level (log10) ([1]; 6700 nM): -0.028 ± 0.017
level (log10) ([1]; 20000 nM): -0.0725 ± 0.019
level (log10) ([1]; 60000 nM): -0.217 ± 0.02
level (log10) ([2]; 6700 nM): -0.011 ± 0.0099
level (log10) ([2]; 20000 nM): -0.049 ± 0.04
level (log10) ([2]; 60000 nM): -0.0795 ± 0.049
level (log10) ([3]; 6700 nM): 0.013 ± 0.0042
level (log10) ([3]; 20000 nM): 0.011 ± 0.011
level (log10) ([3]; 60000 nM): 0.0035 ± 0.00071
level (log10) ([4]; 6700 nM): -0.028 ± 0.0071
level (log10) ([4]; 20000 nM): -0.039 ± 0.0014
level (log10) ([5]; 6700 nM): 0.0115 ± 0.00071
level (log10) ([5]; 20000 nM): 0.009 ± 0.0014
level (log10) ([5]; 60000 nM): 0 ± 0.031
level (log10) (Octafluoroadipamide; 6700 nM): -0.0095 ± 0.011
level (log10) (Octafluoroadipamide; 20000 nM): -0.013 ± 0.018
level (log10) (Octafluoroadipamide; 60000 nM): 0.002 ± 0.013
level (log10) ([6]; 6700 nM): -0.0215 ± 0.0064
level (log10) ([6]; 20000 nM): -0.0105 ± 0.0064
level (log10) ([6]; 60000 nM): -0.0195 ± 0.0035
level (log10) ([7]; 6700 nM): -0.0375 ± 0.0092
level (log10) ([7]; 20000 nM): -0.0735 ± 0.033
level (log10) ([8]; 6700 nM): 0.025 ± 0.0085
level (log10) ([8]; 20000 nM): 0.0175 ± 0.005
level (log10) ([8]; 60000 nM): 0.0495 ± 0.026
level (log10) ([9]; 1500 nM): 0.007 ± 0.011
level (log10) ([9]; 4400 nM): -0.0425 ± 0.015
level (log10) ([9]; 13000 nM): -0.0215 ± 0.00071
level (log10) ([9]; 40000 nM): -0.111 ± 0.0042
level (log10) ([10]; 6700 nM): -0.0245 ± 0.059
level (log10) ([10]; 20000 nM): -0.04 ± 0.024
level (log10) ([10]; 60000 nM): -0.04 ± 0.0057
level (log10) (Heptafluorobutyl iodide; 6700 nM): -0.0425 ± 0.043
level (log10) (Heptafluorobutyl iodide; 20000 nM): -0.045 ± 0.03
level (log10) (Heptafluorobutyl iodide; 60000 nM): -0.032 ± 0.037
level (log10) (Nonafluoropentanamide; 6700 nM): -0.0095 ± 0.013
level (log10) (Nonafluoropentanamide; 20000 nM): -0.025 ± 0.0085
level (log10) (Nonafluoropentanamide; 60000 nM): -0.008 ± 0.0042
level (log10) ([11]; 6700 nM): -0.001 ± 0.0014
level (log10) ([11]; 20000 nM): -0.0035 ± 0.00071
level (log10) ([11]; 60000 nM): -0.013 ± 0.024
level (log10) [12]: -0.181 ± 0.073
level (log10) ([13]; 6700 nM): -0.01 ± 0.028
level (log10) ([13]; 20000 nM): -0.0235 ± 0.047
level (log10) ([14]; 6700 nM): 0.001 ± 0.0085
level (log10) ([14]; 20000 nM): -0.0075 ± 0.018
level (log10) ([14]; 60000 nM): -0.0125 ± 0.00071
level (log10) (Hexafluoroamylene glycol; 6700 nM): -0.039 ± 0.042
level (log10) (Hexafluoroamylene glycol; 20000 nM): -0.0215 ± 0.023
level (log10) (Hexafluoroamylene glycol; 60000 nM): -0.024 ± 0.048
level (log10) ([15]; 6700 nM): -0.0105 ± 0.0035
level (log10) ([15]; 20000 nM): 0.013 ± 0.0085
level (log10) ([15]; 60000 nM): 0.002 ± 0.0071

lMphg:CCL2/MCP-1
level (log10) ([1]; 6700 nM): -0.018 ± 0.054
level (log10) ([1]; 20000 nM): -0.053 ± 0.017
level (log10) ([1]; 60000 nM): -0.123 ± 0.054
level (log10) ([2]; 6700 nM): 0.0175 ± 0.0092
level (log10) ([2]; 20000 nM): 0.0255 ± 0.0092
level (log10) ([2]; 60000 nM): 0.032 ± 0.0028
level (log10) ([3]; 6700 nM): -0.009 ± 0.031
level (log10) ([3]; 20000 nM): -0.0255 ± 0.026
level (log10) ([3]; 60000 nM): 0.0025 ± 0.044
level (log10) ([4]; 6700 nM): 0.009 ± 0.0085
level (log10) ([4]; 20000 nM): 0.018 ± 0.02
level (log10) ([5]; 6700 nM): -0.0075 ± 0.011
level (log10) ([5]; 20000 nM): -0.021 ± 0.021
level (log10) ([5]; 60000 nM): 0.0105 ± 0.026
level (log10) (Octafluoroadipamide; 6700 nM): 0.0185 ± 0.016
level (log10) (Octafluoroadipamide; 20000 nM): 0.0035 ± 0.0021
level (log10) (Octafluoroadipamide; 60000 nM): 0.005 ± 0.025
level (log10) ([6]; 6700 nM): -0.004 ± 0.023
level (log10) ([6]; 20000 nM): -0.0245 ± 0.023
level (log10) ([6]; 60000 nM): -0.0165 ± 0.0021
level (log10) ([7]; 6700 nM): -0.0045 ± 0.0064
level (log10) ([7]; 20000 nM): 0.0335 ± 0.044
level (log10) ([8]; 6700 nM): 0.004
level (log10) ([8]; 20000 nM): -0.0065 ± 0.012
level (log10) ([8]; 60000 nM): 0.0255 ± 0.018
level (log10) ([9]; 1500 nM): 0.022 ± 0.0028
level (log10) ([9]; 4400 nM): -0.0035 ± 0.013
level (log10) ([9]; 13000 nM): 0.0135 ± 0.005
level (log10) ([9]; 40000 nM): 0.0225 ± 0.026
level (log10) ([10]; 6700 nM): -0.0195 ± 0.012
level (log10) ([10]; 20000 nM): -0.005 ± 0.0099
level (log10) ([10]; 60000 nM): 0.027 ± 0.025
level (log10) (Heptafluorobutyl iodide; 6700 nM): 0.0255 ± 0.00071
level (log10) (Heptafluorobutyl iodide; 20000 nM): -0.006 ± 0.0028
level (log10) (Heptafluorobutyl iodide; 60000 nM): 0.0135 ± 0.0021
level (log10) (Nonafluoropentanamide; 6700 nM): 0.0005 ± 0.0021
level (log10) (Nonafluoropentanamide; 20000 nM): 0.0025 ± 0.049
level (log10) (Nonafluoropentanamide; 60000 nM): 0.0225 ± 0.037
level (log10) ([11]; 6700 nM): -0.005 ± 0.0085
level (log10) ([11]; 20000 nM): -0.009 ± 0.0014
level (log10) ([11]; 60000 nM): 0.004 ± 0.0071
level (log10) [12]: -0.048 ± 0.0085
level (log10) ([13]; 6700 nM): -0.0145 ± 0.025
level (log10) ([13]; 20000 nM): 0.0085 ± 0.028
level (log10) ([14]; 6700 nM): 0.0015 ± 0.0035
level (log10) ([14]; 20000 nM): 0.001 ± 0.013
level (log10) ([14]; 60000 nM): -0.02 ± 0.042
level (log10) (Hexafluoroamylene glycol; 6700 nM): -0.001 ± 0.03
level (log10) (Hexafluoroamylene glycol; 20000 nM): -0.0115 ± 0.0064
level (log10) (Hexafluoroamylene glycol; 60000 nM): -0.007 ± 0.023
level (log10) ([15]; 6700 nM): -0.023 ± 0.014
level (log10) ([15]; 20000 nM): -0.0275 ± 0.011
level (log10) ([15]; 60000 nM): 0.006 ± 0.03
